Laboratory results from patent publication US9663486B2, “Selectively substituted quinoline compounds” (EISAI R&D MANAGEMENT CO., LTD., priority 2013, dated 2017).
“Also recorded” adds a separate entry of the source.

Columns and labels:
Human TLR7/8 = assay: Human PBMC cell-based assay, TLR7/8 (RNA-Ig), cytokine ELISA; settings: Hu PBMC; ligand RNA-Ig; read-out: IC50, IL-6, Human TLR7/8
Experimental: Human peripheral blood mononuclear cells (PBMC) were isolated from freshly-drawn heparinized (10 USP units/ml, Hospira, Lakeforest, Ill.) healthy donor whole blood by density gradient (Histopaque® 1077, Sigma, Inc., St. Louis, Mo.). Briefly, 25 ml blood was diluted with 15 ml PBS (without Ca^2+, Mg^2+) in a 50 ml conical tube, and 12 ml Histopaque was underlaid using a spinal needle. Tubes were centrifuged for 45 minutes at 1200 rpm (350×g), and PBMC were collected from the buffy coat. Cells were then washed twice in PBS, and red blood cells were lysed by suspension in 5 ml ammonium chloride solution (1× Red Blood Cell Lysis Buffer, eBioscience) for 5 minutes at room temperature. After a final wash in PBS, PBMC were resuspended at a final concentration of 2×10^6/ml in RPMI-1640 media with L-glutamine (Invitrogen) and supplemented with 25 mM HEPES (Mediatech, Inc, Manassas Va.), 10% fetal bovine serum (HyClone, Logan, Utah), and Penicillin-Streptomycin-Glutamine (Mediatech) and plated at 100 ul/well (2×10^5 cells/well) in tissue culture treated 96-well plates (Falcon).
Antagonist compounds solubilized and serial diluted in 100% DMSO were added in triplicate to cells to yield a final concentration of 0.1% DMSO (v/v). Hydroxychloroquine (Acros Organics) solubilized and serial diluted in PBS was added in triplicate to cells. PBMC were incubated with antagonist compounds or HCQ for 30 minutes at 37° C., 5% CO2 before adding various TLR agonist reagents in 100 ul complete media per well as follows (final concentrations indicated): R848 (Resiquimod; GLSynthesis, Worcester, Mass.) at 1 uM for TLR7 and TLR8, Pam3CSK4 (InvivoGen) at 50 ng/ml for TLR1/2, LPS (Sigma) at 10 ng/ml for TLR4, and CpG-2216 (InvivoGen) at 5 ug/ml for TLR9. […] The resulting “RNA-Ig” stimulus was incubated at room temperature for 15-30 minutes before adding to cells. PBMC were incubated with the various TLR agonists for 20 hours at 37° C., 5% CO2. Cell culture supernatants were collected, and levels of various human cytokines were assessed as indicated by standard ELISA procedure according to the manufacturer's recommended protocol (BD Biosciences, Inc., San Diego, Calif.).

IFN-regulated genes = assay: DBA/1 pristane lupus model, IFN-regulated gene expression in whole blood (qPCR, IFN score); format: in vivo, mouse; settings: Pristane-induced diseased animals, DBA/1 mice, once-a-day oral dosing
Experimental: FIG. 1A through FIG. 1D show results of treatment with ER-888840 (5-((3R,5S)-3-amino-5-methylpiperidin-1-yl)quinoline-8-carbonitrile) in the DBA/1 pristane model. Figure Legend: Female DBA/1 mice at 10 weeks of age were given an intraperitoneal injection of 0.5 ml pristane or PBS. At 18 weeks of age animals were bled for pre-dosing baseline auto-antibody titers. Once-a-day oral dosing with Vehicle (Veh; 0.5% methyl-cellulose) or 11 mg/kg, 33 mg/kg, or 100 mg/kg of ER-888840 was begun at 18 weeks of age, 8 weeks after pristane injection and continued for 12 weeks of treatment. At the end of the experiment plasma samples were taken and anti-dsDNA and anti-histone (FIG. 1A) and anti-Sm/RNP and anti-RiboP (FIG. 1B) titers were determined by ELISA. (FIG. 1C) The expression of IFN-regulated genes in whole blood was measured by a qPCR panel after 8 weeks of treatment. […] (FIG. 1D) The interferon scores of individual mice were calculated (see Pharmacology Materials and Methods section for details regarding IFN score calculation) and groups compared using the Mann-Whitney t test.
FIG. 2A through 2E show results of treatment with ER-888840 in the DBA/1 pristane model. […] At the end of the experiment plasma was taken and anti-dsDNA (FIG. 2A), anti-RiboP (FIG. 2B), anti-histone (FIG. 2C) and anti-Sm/RNP (FIG. 2D) titers were determined by ELISA. […]

## C[C@H]1C[C@@H](N)CN(c2ccc(C#N)c3ncccc23)C1 [ER-888840, 5-((3R,5S)-3-amino-5-methylpiperidin-1-yl)quinoline-8-carbonitrile]
Human TLR7/8
  IC50: 1.4 nM
IFN-regulated genes
  effect on interferon-regulated gene expression (interferon score): dose-dependently significantly reduced interferon-regulated gene expression; also recorded: suppressed the upregulation of interferon-driven genes
